Measured values as given in patent US9981916B2 (Genentech, Inc., priority 2013, dated 2018).

What follows are molecules tested against T1, RORc ligand binding domain (Homo sapiens, UniProt P51449) (assay: In vitro RORc ligand binding assay (25-[3H]hydroxycholesterol displacement, filter binding)). Conditions: 6 nM 25-[3H]hydroxycholesterol, 0.6 ug/mL RORc receptor, 3 h at 25° C.
T1 construct: host or cells: E. coli
T1 sequence (P51449 269-508 limits assumed): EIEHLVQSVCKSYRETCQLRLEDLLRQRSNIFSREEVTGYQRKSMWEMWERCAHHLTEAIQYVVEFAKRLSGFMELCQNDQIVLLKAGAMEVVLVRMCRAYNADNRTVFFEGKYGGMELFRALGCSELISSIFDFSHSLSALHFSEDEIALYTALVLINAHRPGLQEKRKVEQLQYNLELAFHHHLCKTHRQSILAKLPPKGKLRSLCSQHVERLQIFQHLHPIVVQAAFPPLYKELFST
Outline: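 Compounds in 5% DMSO, either dose-response or screened at 1 and 10 uM, competed with 6 nM 25-[3H]hydroxycholesterol for 0.6 ug/mL RORc over 3 h at 25° C (HEPES pH 7.4, NaCl, MgCl2, DTT, BSA buffer). Bound tracer was filter-harvested and counted; nonspecific binding came from 1 uM 25-hydroxycholesterol.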

IC50 [nM] | SMILES
3250 | CC1(C)[C@H]2CC[C@]1(C(=O)N1CC(OCc3ccccc3)C1)c1nnc(-c3c(F)cccc3F)cc12 [Example 198, (3-(benzyloxy)azetidin-1-yl)((5R,8R)-3-(2,6-difluorophenyl)-9,9-dimethyl-5,6,7,8-tetrahydro-5,8-methanocinnolin-8-yl)methanone]
323 | CC1(C)[C@H]2CC[C@]1(Cc1noc(CO)n1)c1nnc(-c3c(F)cccc3F)cc12 [Example 61, (3-{[(5R,8R)-3-(2,6-difluorophenyl)-9,9-dimethyl-6,7-dihydro-5,8-methanocinnolin-8(5H)-yl]methyl}-1,2,4-oxadiazol-5-yl)methanol]
28 | CC(C)(O)[C@@]12CC[C@@H](c3cc(-c4c(F)cccc4F)nnc31)C2(C)C [Example 300, 2-((5R,8R)-3-(2,6-difluorophenyl)-9,9-dimethyl-5,6,7,8-tetrahydro-5,8-methanocinnolin-8-yl)propan-2-ol]
1530 | Cc1nn(C)/c(=N\[C@@]23CC[C@@H](c4cc(-c5ccccc5F)nnc42)C3(C)C)o1 [Example 229, (5R,8R,E)-N-(3,5-dimethyl-1,3,4-oxadiazol-2(3H)-ylidene)-3-(2-fluorophenyl)-9,9-dimethyl-5,6,7,8-tetrahydro-5,8-methanocinnolin-8-amine]
280 | CC1(C)[C@H]2CC[C@]1(C)c1nnc(Oc3c(F)cccc3F)cc12 [Example 99, (5R,8S)-3-(2,6-difluorophenoxy)-8,9,9-trimethyl-5,6,7,8-tetrahydro-5,8-methanocinnoline]
116 | CC1(C)[C@H]2CC[C@]1(c1nnc(CO)o1)c1nnc(-c3c(F)cccc3F)cc12 [Example 68, {5-[(5R,8R)-3-(2,6-difluorophenyl)-9,9-dimethyl-6,7-dihydro-5,8-methanocinnolin-8(5H)-yl]-1,3,4-oxadiazol-2-yl}methanol]
393 | CN(C(=O)CO)[C@@]12CC[C@@H](c3cc(-c4c(F)cccc4F)nnc31)C2(C)C [Example 313, N-((5R,8R)-3-(2,6-difluorophenyl)-9,9-dimethyl-5,6,7,8-tetrahydro-5,8-methanocinnolin-8-yl)-2-hydroxy-N-methylacetamide]
103 | C[C@@H]1COC(=O)N1C[C@@]12CC[C@@H](c3cc(-c4c(F)cccc4F)nnc31)C2(C)C [Example 294, (R)-3-(((5R,8S)-3-(2,6-difluorophenyl)-9,9-dimethyl-5,6,7,8-tetrahydro-5,8-methanocinnolin-8-yl)methyl)-4-methyloxazolidin-2-one]
1170 | COCC(=O)N[C@@]12CC[C@@H](c3cc(-c4ccccc4F)nnc31)C2(C)C [Example 83, N-[(5R,8R)-3-(2-fluorophenyl)-9,9-dimethyl-6,7-dihydro-5,8-methanocinnolin-8(5H)-yl]-2-methoxyacetamide]
608 | CC1(C)[C@H]2CC[C@]1(C(=O)N1CCC1)c1nnc(-c3c(F)cccc3F)cc12 [Example 141, azetidin-1-yl((5R,8R)-3-(2,6-difluorophenyl)-9,9-dimethyl-5,6,7,8-tetrahydro-5,8-methanocinnolin-8-yl)methanone]
830 | CC1(C)[C@@H]2CC[C@@]1(C(=O)N1CC[C@H](CO)C1)c1nnc(-c3c(F)cccc3F)cc12 [Example 216, ((5S,8S)-3-(2,6-difluorophenyl)-9,9-dimethyl-5,6,7,8-tetrahydro-5,8-methanocinnolin-8-yl)((S)-3-(hydroxymethyl)pyrrolidin-1-yl)methanone]
1330 | CC(C)CNC(=O)[C@]12CC[C@H](c3cc(-c4ccccc4F)nnc31)C2(C)C [Example 131, (5S,8S)-3-(2-fluorophenyl)-N-isobutyl-9,9-dimethyl-5,6,7,8-tetrahydro-5,8-methanocinnoline-8-carboxamide]
1500 | CN(C)C(=O)N[C@@]12CC[C@@H](c3cc(-c4c(F)cccc4F)nnc31)C2(C)C [Example 320, 3-((5R,8R)-3-(2,6-difluorophenyl)-9,9-dimethyl-5,6,7,8-tetrahydro-5,8-methanocinnolin-8-yl)-1,1-dimethylurea]
144 | CC1(C)[C@@H]2CC[C@@]1(C(=O)N1CC3COCC3C1)c1nnc(-c3c(F)cccc3F)cc12 (stereo partly drawn) [Example 217, ((5S,8S)-3-(2,6-difluorophenyl)-9,9-dimethyl-5,6,7,8-tetrahydro-5,8-methanocinnolin-8-yl)(tetrahydro-1H-furo[3,4-c]pyrrol-5(3H)-yl)methanone]
6 | CCN(C[C@@]12CC[C@@H](c3cc(-c4c(F)cccc4F)nnc31)C2(C)C)C(=O)c1cc(C)on1 [Example 158, N-(((5R,8S)-3-(2,6-difluorophenyl)-9,9-dimethyl-5,6,7,8-tetrahydro-5,8-methanocinnolin-8-yl)methyl)-N-ethyl-5-methylisoxazole-3-carboxamide]
387 | CC1(C)C2CCC1(C(=O)N1CC(N3CC[C@H](F)C3)C1)c1nnc(-c3c(F)cccc3F)cc12 (stereo in doubt) [Example 248, ((5S,8S)-3-(2,6-difluorophenyl)-9,9-dimethyl-5,6,7,8-tetrahydro-5,8-methanocinnolin-8-yl)(3-((S)-3-fluoropyrrolidin-1-yl)azetidin-1-yl) methanone]
2670 | CC1(C)[C@H]2CC[C@]1(C(=O)NCCO)c1nnc(-c3ccccc3F)cc12 [Example 176, (5R,8R)-3-(2-fluorophenyl)-N-(2-hydroxyethyl)-9,9-dimethyl-5,6,7,8-tetrahydro-5,8-methanocinnoline-8-carboxamide]
121 | CC(=O)OCCN(C[C@@]12CC[C@@H](c3cc(-c4c(F)cccc4F)nnc31)C2(C)C)C(C)=O [Example 290, 2-(N-(((5R,8S)-3-(2,6-difluorophenyl)-9,9-dimethyl-5,6,7,8-tetrahydro-5,8-methanocinnolin-8-yl)methyl)acetamido)ethyl acetate]
222 | CC1(C)[C@H]2CC[C@]1(CN1CCOC1=O)c1nnc(-c3c(F)cccc3F)cc12 [Example 279, 3-(((5R,8S)-3-(2,6-difluorophenyl)-9,9-dimethyl-5,6,7,8-tetrahydro-5,8-methanocinnolin-8-yl)methyl)oxazolidin-2-one]
39 | CC1(C)[C@H]2CC[C@]1(c1cocn1)c1nnc(-c3c(F)cccc3F)cc12 [Example 114, (5R,8S)-3-(2,6-difluorophenyl)-9,9-dimethyl-8-(1,3-oxazol-4-yl)-5,6,7,8-tetrahydro-5,8-methanocinnoline]
24 | CC1(C)[C@H]2CC[C@]1(c1ccccn1)c1nnc(-c3c(F)cccc3F)cc12 [Example 153]
388 | CC1(C)[C@H]2CC[C@]1(Cc1nnc(CO)o1)c1nnc(-c3c(F)cccc3F)cc12 (stereo in doubt) [Example 76, (5-{[(5R,8R)-3-(2,6-difluorophenyl)-9,9-dimethyl-6,7-dihydro-5,8-methanocinnolin-8(5H)-yl]methyl}-1,3,4-oxadiazol-2-yl)methanol]
131 | Cc1nnc(C[C@@]23CC[C@@H](c4cc(-c5c(F)cccc5F)nnc42)C3(C)C)o1 [Example 65, (5R,8R)-3-(2,6-difluorophenyl)-9,9-dimethyl-8-[(5-methyl-1,3,4-oxadiazol-2-yl)methyl]-5,6,7,8-tetrahydro-5,8-methanocinnoline]
134 | Cc1ncoc1[C@@]12CC[C@@H](c3cc(-c4c(F)cccc4F)nnc31)C2(C)C [Example 118, (5R,8R)-3-(2,6-difluorophenyl)-9,9-dimethyl-8-(4-methyl-1,3-oxazol-5-yl)-5,6,7,8-tetrahydro-5,8-methanocinnoline]
1820 | Cc1nnc(N(C)[C@@]23CC[C@@H](c4cc(-c5ccccc5F)nnc42)C3(C)C)o1 [Example 230, N-((5R,8R)-3-(2-fluorophenyl)-9,9-dimethyl-5,6,7,8-tetrahydro-5,8-methanocinnolin-8-yl)-N,5-dimethyl-1,3,4-oxadiazol-2-amine]
314 | CC1(C)[C@@H]2CC[C@@]1(C(=O)N1CCC(CCO)C1)c1nnc(-c3c(F)cccc3F)cc12 (stereo partly drawn) [Example 262, ((5S,8S)-3-(2,6-difluorophenyl)-9,9-dimethyl-5,6,7,8-tetrahydro-5,8-methanocinnolin-8-yl)(3-(2-hydroxyethyl)pyrrolidin-1-yl)methanone]
32 | CCN(C[C@]12CC[C@H](c3cc(-c4c(F)cccc4F)nnc31)C2(C)C)C(=O)CCNC(N)=O [Example 343, N-(((5S,8R)-3-(2,6-difluorophenyl)-9,9-dimethyl-5,6,7,8-tetrahydro-5,8-methanocinnolin-8-yl)methyl)-N-ethyl-3-ureidopropanamide]
28 | CCN(C[C@]12CC[C@H](c3cc(-c4c(F)cccc4F)nnc31)C2(C)C)C(=O)CCC(N)=O [Example 342, N1-(((5S,8R)-3-(2,6-difluorophenyl)-9,9-dimethyl-5,6,7,8-tetrahydro-5,8-methanocinnolin-8-yl)methyl)-N1-ethylsuccinamide]
1230 | CC1(C)[C@@H]2CC[C@@]1(C(=O)NC1CCCC1)c1nnc(-c3c(F)cccc3F)cc12 [Example 206, (5S,8S)-N-cyclopentyl-3-(2,6-difluorophenyl)-9,9-dimethyl-5,6,7,8-tetrahydro-5,8-methanocinnoline-8-carboxamide]
36 | CCN(C[C@@]12CC[C@@H](c3cc(-c4c(F)cccc4F)nnc31)C2(C)C)C(=O)N(C)C [Example 278, 1-(((5R,8S)-3-(2,6-difluorophenyl)-9,9-dimethyl-5,6,7,8-tetrahydro-5,8-methanocinnolin-8-yl)methyl)-1-ethyl-3,3-dimethylurea]
